Assay results taken from US11542313B2, “Incretin analogs and uses thereof” (Eli Lilly and Company, priority 2017, dated 2023).
Several values for one entry are separate records, joined by “and”; a condition that tells them apart may be missing. Equal entries are not always repeated. Marks after values point to notes of the source that are not given here.

Columns and labels:
[1] = tested on: diet-induced obese (DIO) C57BL/6 mice; assay: Diet-induced obese C57BL/6 mice, 15-day study; assay type: in vivo, mouse; conditions: for Body weight % change: days 1 to 15, DIO mice
Procedure: The exemplary incretin analogs as described herein are proposed as a treatment not only for diabetes but also for metabolic syndrome, which is a collection of co-morbidities (dyslipidemia, obesity, hepatic steatosis, etc.) associated with insulin resistance and diabetes. To investigate the effects of the exemplary analogs on parameters such as weight loss, metabolism, body composition and hepatic steatosis, they were dosed to C57BL/6 diet-induced obese (DIO) mice. These animals, although not diabetic, display insulin resistance, dyslipidemia and hepatic steatosis, all characteristics of metabolic syndrome, after being placed on a high-fat diet for 18 weeks.
Specifically, DIO male C57BL/6 mice 24 to 25 weeks old maintained on a calorie-rich diet are used in the following studies. Mice are individually housed in a temperature-controlled (24° C.) facility with 12-hour light/dark cycle (lights on 22:00) and free access to food (TD95217) and water. After a minimum of 2 weeks acclimation to the facility, the mice are randomized according to their body weight, so each experimental group of animals would have similar body weight. The body weights range from 40 to 51 g.
All groups contain 5-6 mice. Vehicle, exemplary analogs dissolved in vehicle (40 mM Tris-HCl at pH 8.0), and semaglutide dissolved in vehicle are administered by subcutaneous (SC) injection (10 mL/kg) to ad libitum fed DIO mice 30 to 90 minutes prior to the onset of the dark cycle every 3 days for 15 days. SC injections are made on Day 1, 4, 7, 10 and 13. Body weight and food intake are measured daily throughout the study.
Absolute changes in body weight are calculated by subtracting the body weight of the same animal prior to the first injection of vehicle, analog or semaglutide. On Days 0 and 15, total fat mass is measured by nuclear magnetic resonance (NMR) using an Echo Medical System Instrument (Houston, Tex.). On Day 15, animals are sacrificed prior to dark photoperiod, and the livers are removed and frozen. Liver triglycerides, determined from homogenates of livers collected at sacrifice, and plasma cholesterol are measured on a Hitachi Modular P clinical analyzer.
Data are presented as mean±SEM of 5-6 animals per group in Tables 7 and 8 below. Statistical analysis is performed using repeated measures ANOVA, followed by Dunnett's method for multiple comparisons. Significant differences are identified at p<0.05.

male Wistar rats = assay: Intravenous glucose tolerance test (ivGTT), insulin secretion in male Wistar rats; assay type: in vivo, rat; parameters: unit not given here; conditions: semaglutide 10 nmol/kg positive control in the run of the Example, mean ± SEM, n=6
Procedure: An intravenous glucose tolerance test (ivGTT) in rats (male Wistar) is used to estimate insulinotropic potency of the exemplary analogs. The GLP-1 RA semaglutide is used as a positive control. Rats with surgically implanted cannulas in the jugular vein and carotid artery (Envigo, Indianapolis, Ind.; 280-320 grams) are housed one per cage in polycarbonate cages with filter tops. Rats are maintained on a 12-hour light-dark cycle at 21° C. and receive 2014 Teklad Global Diet (Envigo, Indianapolis) and deionized water ad libitum. Rats are randomized by body weight and dosed 1.5 mL/kg subcutaneous (sc) with exemplary analogs 16 hours prior to glucose administration, and then fasted. Stock concentrations of […] of the exemplary analogs are diluted in Tris buffer pH 8.0 to 6.667 nMol/mL, 2.0 nMol/mL, 0.667 nMol/mL, 0.2 nMol/mL; doses tested are vehicle, 1, 3 and 10 nMol/kg, and, in some cases 0.3 and 30 nMol/kg. Semaglutide is used as positive control, and its insulinotropic effects are measured both in its own test (vehicle and 1, 3, 10 and 30 nMol/kg doses) and in connection with each run of the exemplary analogs (10 nMol/kg dose).
A time 0 blood sample is collected into EDTA tubes after which glucose is administered ([…], 5 mL/kg). […] Plasma insulin is determined using an electrochemiluminescence assay (Meso Scale, Gaithersburg, Md.). […]

[2] = 3 nmol/kg, after fifteen days, DIO mice, mean ± SEM

semaglutide
Body weight % change ([1]; 3 nmol/kg SC every 3 days): −2.62 ± 0.49% | ALT [1, 2]: 99.8 ± 14.84 IU/L | Cholesterol [1, 2]: 218.0 ± 9.23 mg/dL | Glucose [1, 2]: 137.8 ± 7.34 mg/dL | Liver Triglycerides [1, 2]: 226.4 ± 23.8 mg/g tissue | Plasma Insulin [1, 2]: 4196 ± 1014 pg/mL | Body weight % change ([1]; 10 nmol/kg SC every 3 days): −10.31 ± 1.25% | Body weight % change ([1]; 30 nmol/kg SC every 3 days): −15.49 ± 2.44% | AUC30min of Insulin after a Bolus IV Glucose (male Wistar rats): 44.7 +/− 3.7* and 55.1 +/− 9.0* and 40.2 +/− 2.5* and 38.4 +/− 6.0* and 56.3 +/− 7.7* and 48.4 +/− 6.6* and 51.86 +/− 6.7* and 45.6 +/− 6.6*
